Values quoted from earlier work as cited in patent publication US20160082159A1, “BALLOON SURFACE COATING” (priority 2013, published 2016).

Details: in humans

- normal plasma half-life of paclitaxel: approximately 60 min
SMILES: CC(=O)O[C@H]1C(=O)[C@@]2(C)[C@H]([C@H](OC(=O)c3ccccc3)[C@]3(O)C[C@H](OC(=O)[C@H](O)[C@@H](NC(=O)c4ccccc4)c4ccccc4)C(C)=C1C3(C)C)[C@]1(OC(C)=O)CO[C@@H]1C[C@@H]2O [paclitaxel]
